# Where two headings read alike, the source gives them in different places.
# Target: T1, human APJ receptor (Homo sapiens, UniProt P35414)
# T1 construct: expressed in transfected cells
# T1 sequence (P35414 1-380): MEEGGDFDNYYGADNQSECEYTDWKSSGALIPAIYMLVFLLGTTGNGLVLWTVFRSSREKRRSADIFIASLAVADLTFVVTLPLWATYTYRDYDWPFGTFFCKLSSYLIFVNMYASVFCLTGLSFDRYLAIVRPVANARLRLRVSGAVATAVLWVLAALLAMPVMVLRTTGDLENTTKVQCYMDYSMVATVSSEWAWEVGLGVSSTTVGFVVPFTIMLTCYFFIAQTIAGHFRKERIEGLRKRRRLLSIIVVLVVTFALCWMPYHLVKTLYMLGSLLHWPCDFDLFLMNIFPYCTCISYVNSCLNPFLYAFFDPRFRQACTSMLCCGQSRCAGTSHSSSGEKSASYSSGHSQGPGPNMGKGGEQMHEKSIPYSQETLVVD
# Assay: Intracellular cAMP accumulation assay (APJ hcAMP, HTRF)
# Assay type: cell-based
# Details: HEK293 cells stably expressing human APJ receptor
# Protocol: Intracellular cAMP Accumulation Assay
# HEK293 cells stably expressing human APJ receptor were used to assess the activity of compounds. Cultured cells were detached and resuspended in the cAMP Homogeneous Time-Resolved Fluorescence (HTRF) assay buffer (Cisbio cat; #62AM4PEJ). The assay was performed in 384-well assay plates (Perkin-Elmer; cat #6008289) according to assay protocol provided by the manufacturer. Serial dilutions of a compound together with assay buffer containing […] IBMX and 2 μM forskolin were added to each well containing 5,000 cells and incubated for 30 minutes at room temperature. Subsequently, cAMP D2 reagent was added in the lysis buffer followed by the EuK antibody (Cisbio; cat #62AM4PEJ) and incubated for 60 min. The fluorescence emission ratio was measured using fluorometer. The intracellular cAMP concentrations (compound-stimulated inhibition of forskolin-mediated cAMP production) were calculated by extrapolation from a standard curve using known cAMP concentrations. The EC50 values were obtained by fitting the data to a sigmoidal concentration-response curve with variable slope. The maximal achievable inhibition of forskolin-induced cAMP levels (Ymax) for each compound was expressed as relative percentage of inhibition attained using pyroglutamated apelin-13 ((Pyrl)apelin-13) peptide, which was set to 100%.
# The exemplified Examples disclosed below were tested in the APJ in vitro assays described above and were found having human APJ cyclic AMP (hcAMP) activity. Table 1 lists hcAMP EC50 values measured for the following examples. Ranges are as followε: A=0.0-10 nM; B=10.01-100 nM; C=101-500 nM.
# [1] = Table 1, inhibition of forskolin-mediated cAMP production, read-out: APJ hcAMP EC50
# [2] = Table 3, read-out: APJ cAMP Human EC50
SMILES,EC50 [1] [nM],EC50 [2] [nM]
"CCC[C@@H](NC(=O)c1ccc(-c2c(Cl)cccc2-c2nc3ccccc3[nH]2)c(C(=O)O)c1)c1ccccc1 (atropisomer, axis not shown) [Example 81, (S)-2′-(1H-benzo[d]imidazol-2-yl)-6′-chloro-4-(((R)-1-phenylbutyl)carbamoyl)-[1,1′-biphenyl]-2-carboxylic acid]",< 10,< 10
"COC[C@@H](NC(=O)c1ccc(-c2c(Cl)cccc2-c2nc3ccccc3[nH]2)c(C(=O)O)c1)c1ccccc1 (atropisomer, axis not shown) [Example 82, (S)-2′-(1H-benzo[d]imidazol-2-yl)-6′-chloro-4-(((S)-2-methoxy-1-phenylethyl)carbamoyl)-[1,1′-biphenyl]-2-carboxylic acid]",–,10 to 100
"CCC[C@@H](NC(=O)c1ccc(-c2c(Cl)cccc2-c2nc3cc(OC)c(F)cc3[nH]2)c(C(=O)OC)c1)c1ccccc1 (atropisomer, axis not shown) [Example 83, methyl (S)-2′-chloro-6′-(6-fluoro-5-methoxy-1H-benzo[d]imidazol-2-yl)-4-(((R)-1-phenylbutyl)carbamoyl)-[1,1′-biphenyl]-2-carboxylate]",–,10 to 100
"CCC[C@@H](NC(=O)c1ccc(-c2c(Cl)cccc2-c2nc3cc(Cl)c(F)cc3[nH]2)c(C(=O)O)c1)c1ccccc1 (atropisomer, axis not shown) [Example 85, (S)-2′-chloro-6′-(5-chloro-6-fluoro-1H-1,3-benzodiazol-2-yl)-4-{[(1R)-1-phenylbutyl]carbamoyl}-[1,1′-biphenyl]-2-carboxylic acid]",–,< 10
"CCC[C@@H](NC(=O)c1ccc(-c2c(Cl)cccc2-c2nc3cc(Cl)c(F)cc3[nH]2)c(C(=O)OC)c1)c1ccccc1 (atropisomer, axis not shown) [Example 86, (S)-methyl 2′-chloro-6′-(5-chloro-6-fluoro-1H-1,3-benzodiazol-2-yl)-4-{[(1R)-1-phenylbutyl]carbamoyl}-[1,1′-biphenyl]-2-carboxylate]",–,101 to 500
"CCC[C@@H](NC(=O)c1ccc(-c2c(Cl)cccc2-c2nc3cc(O)c(F)cc3[nH]2)c(C(=O)O)c1)c1ccccc1 (atropisomer, axis not shown) [Example 87, (S)-2′-chloro-6′-(6-fluoro-5-hydroxy-1H-1,3-benzodiazol-2-yl)-4-{[(1R)-1-phenylbutyl]carbamoyl}-[1,1′-biphenyl]-2-carboxylic acid]",< 10,< 10
"CCC[C@@H](NC(=O)c1ccc(-c2c(Cl)cccc2-c2nc3ccc(F)c(F)c3[nH]2)c(C(=O)O)c1)c1ccccc1 (atropisomer, axis not shown) [Example 88, (S)-2′-chloro-6′-(6,7-difluoro-1H-1,3-benzodiazol-2-yl)-4-{[(1R)-1-phenylbutyl]carbamoyl}-[1,1′-biphenyl]-2-carboxylic acid]",–,< 10
"CCC[C@@H](NC(=O)c1ccc(-c2c(Cl)cccc2-c2nc3cc(F)c(F)cc3[nH]2)c(C(=O)O)c1)c1ccccc1 (atropisomer, axis not shown) [Example 89, (S)-2′-chloro-6′-(5,6-difluoro-1H-1,3-benzodiazol-2-yl)-4-{[(1R)-1-phenylbutyl]carbamoyl}-[1,1′-biphenyl]-2-carboxylic acid]",< 10,< 10
"CCC[C@@H](NC(=O)c1ccc(-c2c(Cl)cccc2-c2nc3cc(F)cc(F)c3[nH]2)c(C(=O)O)c1)c1ccccc1 (atropisomer, axis not shown) [Example 90, (S)-2′-chloro-6′-(5,7-difluoro-1H-1,3-benzodiazol-2-yl)-4-{[(1R)-1-phenylbutyl]carbamoyl}-[1,1′-biphenyl]-2-carboxylic acid]",< 10,< 10
"CCC[C@@H](NC(=O)c1ccc(-c2c(Cl)cccc2-c2nc3cccc(O)c3[nH]2)c(C(=O)O)c1)c1ccccc1 (atropisomer, axis not shown) [Example 92, (S)-2′-chloro-6′-(7-hydroxy-1H-1,3-benzodiazol-2-yl)-4-{[(1R)-1-phenlylbutyl]carbamoyl}-[1,1′-biphenyl]-2-carboxylic acid]",< 10,< 10
"CCC[C@@H](NC(=O)c1ccc(-c2c(Cl)cccc2-c2nc3cc(Cl)cc(Cl)c3[nH]2)c(C(=O)O)c1)c1ccccc1 (atropisomer, axis not shown) [Example 94, (S)-2′-chloro-6′-(5,7-dichloro-1H-1,3-benzodiazol-2-yl)-4-{[(1R)-1-phenylbutyl]carbamoyl}-[1,1′-biphenyl]-2-carboxylic acid]",< 10,< 10
"CCC[C@@H](NC(=O)c1ccc(-c2c(Cl)cccc2-c2nc3cc(Cl)cc(C)c3[nH]2)c(C(=O)O)c1)c1ccccc1 (atropisomer, axis not shown) [Example 95, (S)-2′-chloro-6′-(5-chloro-7-methyl-1H-1,3-benzodiazol-2-yl)-4-{[(1R)-1-phenylbutyl]carbamoyl}-[1,1′-biphenyl]-2-carboxylic acid]",< 10,< 10
"CCC[C@@H](NC(=O)c1ccc(-c2c(Cl)cccc2-c2nc3cc(F)cc(F)c3[nH]2)c(C(=O)O)c1)c1ccccc1 (atropisomer, axis not shown) [Example 96, (S)-2′-chloro-6′-(5,7-difluoro-1H-1,3-benzodiazol-2-yl)-4-{[(1R)-1-phenylbutyl]carbamoyl}-[1,1′-biphenyl]-2-carboxylic acid]",< 10,–

# Now from value to compound:
EC50 [1] [nM],EC50 [2] [nM],SMILES
–,10 to 100,"CCC[C@@H](NC(=O)c1ccc(-c2c(Cl)cccc2-c2nc3cc(Cl)c(C)cc3[nH]2)c(C(=O)O)c1)c1ccccc1 (atropisomer, axis not shown) [Example 97, (S)-2′-chloro-6′-(5-chloro-6-methyl-1H-1,3-benzodiazol-2-yl)-4-{[(1R)-1-phenylbutyl]carbamoyl}-[1,1′-biphenyl]-2-carboxylic acid]"
–,10 to 100,"CCC[C@@H](NC(=O)c1ccc(-c2c(Cl)cccc2-c2nc3c(OC)ccc(OC)c3[nH]2)c(C(=O)O)c1)c1ccccc1 (atropisomer, axis not shown) [Example 98, (S)-2′-chloro-6′-(4,7-dimethoxy-1H-1,3-benzodiazol-2-yl)-4-{[(1R)-1-phenylbutyl]carbamoyl}-[1,1′-biphenyl]-2-carboxylic acid]"
10 to 100,10 to 100,"CCC[C@@H](NC(=O)c1ccc(-c2c(Cl)cccc2-c2nc3cccc(O)c3[nH]2)c(C(=O)O)c1)c1ccccc1 (atropisomer, axis not shown) [Example 99, (S)-2′-chloro-6′-(7-hydroxy-1H-1,3-benzodiazol-2-yl)-4-{[(1R)-1-phenylbutyl]carbamoyl}-[1,1′-biphenyl]-2-carboxylic acid]"
< 10,< 10,"CCC[C@@H](NC(=O)c1ccc(-c2c(Cl)cccc2-c2ncc(-c3ccccc3)[nH]2)c(C(=O)O)c1)c1ccccc1 (atropisomer, axis not shown) [Example 102, (S)-2′-chloro-6′-(5-phenyl-1H-imidazol-2-yl)-4-{[(1R)-1-phenylbutyl]carbamoyl}-[1,1′-biphenyl]-2-carboxylic acid]"
< 10,< 10,"CCC[C@@H](NC(=O)c1ccc(-c2c(Cl)cccc2-c2ncc(-c3cccc(OC)c3)[nH]2)c(C(=O)O)c1)c1ccccc1 (atropisomer, axis not shown) [Example 103, (S)-2′-chloro-6′-[5-(3-methoxyphenyl)-1H-imidazol-2-yl]-4-{[(1R)-1-phenylbutyl]carbamoyl}-[1,1′-biphenyl]-2-carboxylic acid]"
< 10,< 10,"CCC[C@@H](NC(=O)c1ccc(-c2c(Cl)cccc2-c2ncc(-c3ccc(C)c(F)c3)[nH]2)c(C(=O)O)c1)c1ccccc1 (atropisomer, axis not shown) [Example 104, (S)-2′-chloro-6′-[5-(3-fluoro-4-methylphenyl)-1H-imidazol-2-yl]-4-{[(1R)-1-phenylbutyl]carbamoyl}-[1,1′-biphenyl]-2-carboxylic acid]"
< 10,< 10,"CCC[C@@H](NC(=O)c1ccc(-c2c(Cl)cccc2-c2ncc(-c3ccc(OC)cc3)[nH]2)c(C(=O)O)c1)c1ccccc1 (atropisomer, axis not shown) [Example 105, (S)-2′-chloro-6′-[5-(4-methoxyphenyl)-1H-imidazol-2-yl]-4-{[(1R)-1-phenylbutyl]carbamoyl}-[1,1′-biphenyl]-2-carboxylic acid]"
